These results are taken from patent US20060149062A1, “Sulfanyl substituted phenyl methanones” (priority 2005, published 2006).

SMILES strings stand for the structures.

Usually IC50 stands for the concentration that gives 50% inhibition.

This test deals with T1, mGlyT-1b (Mus musculus, UniProt P28571).
T1 construct: expressed in transfected cells; host or cells: Flp-in-CHO (Invitrogen Cat no R758-07), stably transfected
T1 sequence (P28571 1-651 isoform P28571-2): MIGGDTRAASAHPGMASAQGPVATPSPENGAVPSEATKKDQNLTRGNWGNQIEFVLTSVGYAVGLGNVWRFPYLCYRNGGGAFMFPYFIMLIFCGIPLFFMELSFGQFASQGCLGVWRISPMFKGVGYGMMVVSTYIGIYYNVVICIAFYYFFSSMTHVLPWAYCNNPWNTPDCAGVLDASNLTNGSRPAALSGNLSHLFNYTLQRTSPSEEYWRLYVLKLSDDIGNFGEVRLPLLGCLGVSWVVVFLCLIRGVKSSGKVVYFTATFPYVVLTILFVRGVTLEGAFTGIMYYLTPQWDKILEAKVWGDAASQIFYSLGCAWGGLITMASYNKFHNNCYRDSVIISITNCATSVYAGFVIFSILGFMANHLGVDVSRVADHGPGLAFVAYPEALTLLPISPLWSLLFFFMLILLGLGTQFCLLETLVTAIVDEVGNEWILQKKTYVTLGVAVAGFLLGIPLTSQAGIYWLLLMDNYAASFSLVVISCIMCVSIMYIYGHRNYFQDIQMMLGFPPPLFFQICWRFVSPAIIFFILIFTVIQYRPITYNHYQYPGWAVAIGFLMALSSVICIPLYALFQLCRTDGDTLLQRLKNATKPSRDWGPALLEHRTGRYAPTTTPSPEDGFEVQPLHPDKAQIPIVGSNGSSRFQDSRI
Put plainly: Glycine Uptake Inhibition Assay (mGlyT-1b). Type of test: cell-based. The conditions noted are these: [3H]-glycine uptake in Flp-in-CHO cells transfected with mGlyT-1b cDNA; read-out: IC50 (μM) at GlyT-1. On the procedure:
DMEM complete medium: Nutrient mixture F-12 (Gibco Life-technologies), fetal bovine serum (FBS) 5%, (Gibco life technologies), Penicillin/Streptomycin 1% (Gibco life technologies), Hygromycin 0.6 mg/ml (Gibco life technologies), Glutamine 1 mM Gibco life technologies)
Uptake buffer (UB): 150 mM NaCl, 10 mM Hepes-Tris, pH 7.4, 1 mM CaCl2, 2.5 mM KCl, 2.5 mM MgSO4, 10 mM (+) D-glucose.
Flp-in™-CHO (Invitrogen Cat no R758-07) cells stably transfected with mGlyT1b cDNA.
Glycine Uptake Inhibition Assay (mGlyT-1b)
On day 1 mammalian cells, (Flp-in™-CHO), transfected with mGlyT-1b cDNA, were plated at the density of 40,000 cells/well in complete F-12 medium, without hygromycin in 96-well culture plates. On day 2, the medium was aspirated and the cells were washed twice with uptake buffer (UB). The cells were then incubated for 20 min at 22° C. with either (i) no potential competitor, (ii) 10 mM non-radioactive glycine, (iii) a concentration of a potential inhibitor. A range of concentrations of the potential inhibitor was used to generate data for calculating the concentration of inhibitor resulting in 50% of the effect (e.g. IC50, the concentration of the competitor inhibiting glycine uptake of 50%). A solution was then immediately added containing [^3H]-glycine 60 nM (11-16 Ci/mmol) and 25 μM non-radioactive glycine. The plates were incubated with gentle shaking and the reaction was stopped by aspiration of the mixture and washing (three times) with ice-cold UB. The cells were lysed with scintillation liquid, shaken 3 hours and the radioactivity in the cells was counted using a scintillation counter.
On to `CC(C)Sc1ccc([N+](=O)[O-])cc1C(=O)N1CCN(c2ccc(C(F)(F)F)cc2)CC1` [Example 27, (2-Isopropylsulfanyl-5-nitro-phenyl)-[4-(4-trifluoromethyl-phenyl)-piperazin-1-yl]-methanone], for which the IC50 came out at 0.007 µM. For `CC(=O)c1ccc(N2CCN(C(=O)c3cc(S(C)(=O)=O)ccc3SC(C)C)CC2)c(F)c1` [Example 22, 1-{3-Fluoro-4-[4-(2-isopropylsulfanyl-5-methanesulfonyl-benzoyl)-piperazin-1-yl]-phenyl}-ethanone], the IC50 was 0.015 µM. In the case of `CS(=O)(=O)c1ccc(N2CCN(C(=O)c3cc(S(C)(=O)=O)ccc3SCC(F)(F)F)CC2)c(F)c1` [Example 14, [4-(2-Fluoro-4-methanesulfonyl-phenyl)-piperazin-1-yl]-[5-methanesulfonyl-2-(2,2,2-trifluoro-ethylsulfanyl)-phenyl]-methanone] it was 0.1 µM. To `CC(C)Sc1ccc(S(C)(=O)=O)cc1C(=O)N1CCN(c2ccc(S(C)(=O)=O)cc2F)CC1` [Example 6, [4-(2-Fluoro-4-methanesulfonyl-phenyl)-piperazin-1-yl]-(2-isopropylsulfanyl-5-methanesulfonyl-phenyl)-methanone] belongs 0.04 µM. In the case of `CC(C)CSc1ccc(S(C)(=O)=O)cc1C(=O)N1CCN(c2ccc(S(C)(=O)=O)cc2F)CC1` [Example 18, [4-(2-Fluoro-4-methanesulfonyl-phenyl)-piperazin-1-yl]-(2-isobutylsulfanyl-5-methanesulfonyl-phenyl)-methanone] it was 0.1 µM; in that of `CC(C)Sc1ccc(S(C)(=O)=O)cc1C(=O)N1CCN(c2ncc(C(F)(F)F)cc2F)CC1` [Example 3, [4-(3-Fluoro-5-trifluoromethyl-pyridin-2-yl)-piperazin-1-yl]-(2-isopropylsulfanyl-5-methanesulfonyl-phenyl)-methanone], 0.03 µM. For the compound `CC(C)Sc1ccc(S(C)(=O)=O)cc1C(=O)N1CCN(c2ccc([N+](=O)[O-])cc2Cl)CC1` [Example 23, [4-(2-Chloro-4-nitro-phenyl)-piperazin-1-yl]-(2-isopropylsulfanyl-5-methanesulfonyl-phenyl)-methanone], the IC50 came to 0.018 µM. Take `CS(=O)(=O)c1ccc(SCC(F)(F)F)c(C(=O)N2CCN(c3ncc(C(F)(F)F)cc3F)CC2)c1` [Example 11, [4-(3-Fluoro-5-trifluoromethyl-pyridin-2-yl)-piperazin-1-yl]-[5-methanesulfonyl-2-(2,2,2-trifluoro-ethylsulfanyl)-phenyl]-methanone]: the IC50 worked out at 0.07 µM.

`CNS(=O)(=O)c1ccc(SC(C)C)c(C(=O)N2CCN(c3ccc(C(F)(F)F)cc3)CC2)c1` [Example 25, 4-Isopropylsulfanyl-N-methyl-3-[4-(4-trifluoromethyl-phenyl)-piperazine-1-carbonyl]-benzenesulfonamide]: the IC50 was determined as 0.006 µM. To `CCSc1ccc(S(C)(=O)=O)cc1C(=O)N1CCN(c2ncc(C(F)(F)F)cc2F)CC1` [Example 7, (2-Ethylsulfanyl-5-methanesulfonyl-phenyl)-[4-(3-fluoro-5-trifluoromethyl-pyridin-2-yl)-piperazin-1-yl]-methanone] belongs 0.08 µM.
